Experimental findings from US20250019387A1 (Frontier Medicines Corporation, priority 0001, published 2025) are described below.

Sequence of KRAS G12C and cRAF (Ras-binding domain) interaction (P01116 other isoform, or with tags, fused parts or gaps G12C/C51S/C80L/C118S): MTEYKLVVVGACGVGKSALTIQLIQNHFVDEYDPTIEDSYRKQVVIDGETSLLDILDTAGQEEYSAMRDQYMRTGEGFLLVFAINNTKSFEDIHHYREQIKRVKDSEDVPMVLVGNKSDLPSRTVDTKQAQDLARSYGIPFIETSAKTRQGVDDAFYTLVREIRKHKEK

The target of this assay is KRAS G12C and cRAF (Ras-binding domain) interaction (Homo sapiens (Human), UniProt P01116, C118S/C51S/C80L/G12C). In words: Inhibition of KRAS G12C and cRAF binding (AlphaScreen). The conditions noted are these: GMPPNP-loaded KRAS G12C, 19-20 hours incubation with compound; read-out: IC50 (Inhibition of KRAS G12C and cRAF Binding). In short, it runs like this:
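IC50 values come from 4-parameter nonlinear regression of AlphaScreen signal (680 nm excitation, 570 nm emission). Compound plates sat 19-20 h at room temperature before RBD and donor/acceptor beads were added in Hepes pH 7.4 buffer with 150 mM NaCl, 5 mM MgCl2, 2% DMSO for 60-90 min; biotin-AviTag-GST replaced RBD to flag assay-technology interferers.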
On the technique in general: Bead proximity is the source of the signal in Alpha formats.
`CN(CC1CN(C(=O)/C=C/[C@@H]2CCN2C)C1)c1nc(OC[C@@]23CCCN2C[C@H](F)C3)nc2c(F)c(-c3cccc4cccc(Cl)c34)ncc12` [Example 218, (E)-1-(3-(((7-(8-chloronaphthalen-1-yl)-8-fluoro-2-(((2R,7aS)-2-fluorotetrahydro-1H-pyrrolizin-7a(5H)-yl)methoxy)pyrido[4,3-d]pyrimidin-4-yl)(methyl)amino)methyl)azetidin-1-yl)-3-((S)-1-methylazetidin-2-yl)prop-2-en-1-one]: the 50% inhibitory concentration (IC50) (in general, the midpoint of a concentration-inhibition curve) was 10 to 100 nM.
In the case of `CN(CC1CN(C(=O)/C=C/[C@H]2CCN2C)C1)c1nc(OC[C@@]23CCCN2C[C@H](F)C3)nc2c(F)c(-c3cccc4cccc(Cl)c34)ncc12` [Example 219, (E)-1-(3-(((7-(8-chloronaphthalen-1-yl)-8-fluoro-2-(((2R,7aS)-2-fluorotetrahydro-1H-pyrrolizin-7a(5H)-yl)methoxy)pyrido[4,3-d]pyrimidin-4-yl)(methyl)amino)methyl)azetidin-1-yl)-3-((R)-1-methylazetidin-2-yl)prop-2-en-1-one], the IC50 fell in the range of 10 to 100 nM.
Regarding `CN(CC1CN(C(=O)/C=C/[C@@H]2CCN2C)C1)c1nc(OC[C@@]23CCCN2C[C@H](F)C3)nc2c(F)c(-c3cccc4ccc(F)c(Cl)c34)ncc12` [Example 220, (E)-1-(3-(((7-(8-chloro-7-fluoronaphthalen-1-yl)-8-fluoro-2-(((2R,7aS)-2-fluorotetrahydro-1H-pyrrolizin-7a(5H)-yl)methoxy)pyrido[4,3-d]pyrimidin-4-yl)(methyl)amino)methyl)azetidin-1-yl)-3-((S)-1-methylazetidin-2-yl)prop-2-en-1-one], the IC50 was < 10 nM.
The same measure for `CN(CC1CN(C(=O)/C=C/[C@H]2CCN2C)C1)c1nc(OC[C@@]23CCCN2C[C@H](F)C3)nc2c(F)c(-c3cccc4ccc(F)c(Cl)c34)ncc12` [Example 221, (E)-1-(3-(((7-(8-chloro-7-fluoronaphthalen-1-yl)-8-fluoro-2-(((2R,7aS)-2-fluorotetrahydro-1H-pyrrolizin-7a(5H)-yl)methoxy)pyrido[4,3-d]pyrimidin-4-yl)(methyl)amino)methyl)azetidin-1-yl)-3-((R)-1-methylazetidin-2-yl)prop-2-en-1-one]: < 10 nM.
As to `CN(c1nc(OC[C@@]23CCCN2C[C@H](F)C3)nc2c(F)c(-c3cccc4ccc(F)c(Cl)c34)ncc12)[C@@H]1CCN(C(=O)/C=C/[C@H]2CCN2CCO)C1` [Example 222, (E)-1-((R)-3-((7-(8-chloro-7-fluoronaphthalen-1-yl)-8-fluoro-2-(((2R,7aS)-2-fluorotetrahydro-1H-pyrrolizin-7a(5H)-yl)methoxy)pyrido[4,3-d]pyrimidin-4-yl)(methyl)amino)pyrrolidin-1-yl)-3-((R)-1-(2-hydroxyethyl)azetidin-2-yl)prop-2-en-1-one], the 50% inhibitory concentration (IC50) is < 10 nM.
The same measure for `CCN1CC[C@@H]1/C=C/C(=O)N1CC[C@@H](N(C)c2nc(OC[C@@]34CCCN3C[C@H](F)C4)nc3c(F)c(-c4cccc5cccc(Cl)c45)ncc23)C1` [Example 223, (E)-1-((R)-3-((7-(8-chloronaphthalen-1-yl)-8-fluoro-2-(((2R,7aS)-2-fluorotetrahydro-1H-pyrrolizin-7a(5H)-yl)methoxy)pyrido[4,3-d]pyrimidin-4-yl)(methyl)amino)pyrrolidin-1-yl)-3-((R)-1-ethylazetidin-2-yl)prop-2-en-1-one]: 10 to 100 nM.
Regarding `CN(c1nc(OC[C@@]23CCCN2C[C@H](F)C3)nc2c(F)c(-c3cccc4cccc(Cl)c34)ncc12)[C@@H]1CCN(C(=O)/C=C/[C@H]2CCN2CC2COC2)C1` [Example 224, (E)-1-((R)-3-((7-(8-chloronaphthalen-1-yl)-8-fluoro-2-(((2R,7aS)-2-fluorotetrahydro-1H-pyrrolizin-7a(5H)-yl)methoxy)pyrido[4,3-d]pyrimidin-4-yl)(methyl)amino)pyrrolidin-1-yl)-3-((R)-1-(oxetan-3-ylmethyl)azetidin-2-yl)prop-2-en-1-one], the concentration for half-maximal inhibition (IC50) was 10 to 100 nM.
`CN(c1nc(OC[C@@]23CCCN2C[C@H](F)C3)nc2c(F)c(-c3cccc4ccc(F)c(Cl)c34)ncc12)[C@@H]1CCN(C(=O)C#CCN2CC(F)C2)C1` [Example 225, 1-((R)-3-((7-(8-chloro-7-fluoronaphthalen-1-yl)-8-fluoro-2-(((2R,7aS)-2-fluorohexahydro-1H-pyrrolizin-7a-yl)methoxy)pyrido[4,3-d]pyrimidin-4-yl)(methyl)amino)pyrrolidin-1-yl)-4-(3-fluoroazetidin-1-yl)but-2-yn-1-one]: the IC50 was 10 to 100 nM.
The same measure for `CN(CC1CN(C(=O)/C=C/c2nc(C(C)(C)O)no2)C1)c1nc(OCC23CCCN2CCC3)nc2c(F)c(-c3cccc4ccc(F)c(Cl)c34)ncc12` [Example 229, (E)-1-(3-(((7-(8-chloro-7-fluoronaphthalen-1-yl)-8-fluoro-2-((tetrahydro-1H-pyrrolizin-7a(5H)-yl)methoxy)pyrido[4,3-d]pyrimidin-4-yl)(methyl)amino)methyl)azetidin-1-yl)-3-(3-(2-hydroxypropan-2-yl)-1,2,4-oxadiazol-5-yl)prop-2-en-1-one]: < 10 nM.
The same measure for `CN(c1nc(OC[C@@]23CCCN2C[C@H](F)C3)nc2c(F)c(-c3cccc4cccc(Cl)c34)ncc12)[C@@H]1CCN(C(=O)/C=C/c2ncncc2F)C1` [Example 230, (E)-1-((R)-3-((7-(8-chloronaphthalen-1-yl)-8-fluoro-2-(((2R,7aS)-2-fluorotetrahydro-1H-pyrrolizin-7a(5H)-yl)methoxy)pyrido[4,3-d]pyrimidin-4-yl)(methyl)amino)pyrrolidin-1-yl)-3-(5-fluoropyrimidin-4-yl)prop-2-en-1-one]: 10 to 100 nM; for `CC(C)N1CC[C@@H]1/C=C/C(=O)N1CC[C@@H](N(C)c2nc(OC[C@@]34CCCN3C[C@H](F)C4)nc3c(F)c(-c4cccc5cccc(Cl)c45)ncc23)C1` [Example 232, (E)-1-((R)-3-((7-(8-chloronaphthalen-1-yl)-8-fluoro-2-(((2R,7aS)-2-fluorotetrahydro-1H-pyrrolizin-7a(5H)-yl)methoxy)pyrido[4,3-d]pyrimidin-4-yl)(methyl)amino)pyrrolidin-1-yl)-3-((R)-1-isopropylazetidin-2-yl)prop-2-en-1-one]: 10 to 100 nM; for `CN(c1nc(OC[C@@]23CCCN2C[C@H](F)C3)nc2c(F)c(-c3cccc4cccc(Cl)c34)ncc12)[C@@H]1CCN(C(=O)/C=C/[C@H]2CCN2CCO)C1` [Example 233, (E)-1-((R)-3-((7-(8-chloronaphthalen-1-yl)-8-fluoro-2-(((2R,7aS)-2-fluorotetrahydro-1H-pyrrolizin-7a(5H)-yl)methoxy)pyrido[4,3-d]pyrimidin-4-yl)(methyl)amino)pyrrolidin-1-yl)-3-((R)-1-(2-hydroxyethyl)azetidin-2-yl)prop-2-en-1-one]: 10 to 100 nM.
As for `COCCN1CC[C@@H]1/C=C/C(=O)N1CC[C@@H](N(C)c2nc(OC[C@@]34CCCN3C[C@H](F)C4)nc3c(F)c(-c4cccc5cccc(Cl)c45)ncc23)C1` [Example 234, (E)-1-((R)-3-((7-(8-chloronaphthalen-1-yl)-8-fluoro-2-(((2R,7aS)-2-fluorotetrahydro-1H-pyrrolizin-7a(5H)-yl)methoxy)pyrido[4,3-d]pyrimidin-4-yl)(methyl)amino)pyrrolidin-1-yl)-3-((R)-1-(2-methoxyethyl)azetidin-2-yl)prop-2-en-1-one], the figure is 10 to 100 nM; as for `COCCN(C)C/C=C/C(=O)N1CC[C@@H](N(C)c2nc(OC[C@@]34CCCN3C[C@H](F)C4)nc3c(F)c(-c4cccc5cccc(Cl)c45)ncc23)C1` [Example 235, (E)-1-((R)-3-((7-(8-chloronaphthalen-1-yl)-8-fluoro-2-(((2R,7aS)-2-fluorohexahydro-1H-pyrrolizin-7a-yl)methoxy)pyrido[4,3-d]pyrimidin-4-yl)(methyl)amino)pyrrolidin-1-yl)-4-((2-methoxyethyl)(methyl)amino)but-2-en-1-one], < 10 nM.
Consider `C=CC(=O)N1C[C@H](F)[C@@H](N(C)c2nc(OCC34CCCN3CCC4)nc3c(F)c(-c4cccc5ccc(F)c(Cl)c45)ncc23)C1` [Example 237, 1-((3S,4S)-3-((7-(8-chloro-7-fluoronaphthalen-1-yl)-8-fluoro-2-((tetrahydro-1H-pyrrolizin-7a(5H)-yl)methoxy)pyrido[4,3-d]pyrimidin-4-yl)(methyl)amino)-4-fluoropyrrolidin-1-yl)prop-2-en-1-one], for which the concentration for half-maximal inhibition (IC50) is 10 to 100 nM.
As for `CN(c1nc(OC[C@@]23CCCN2C[C@H](F)C3)nc2c(F)c(-c3cccc4cccc(Cl)c34)ncc12)[C@@H]1CCN(C(=O)C#CC2COCCN2)C1` (stereo partly drawn) [Example 238, 1-((R)-3-((7-(8-chloronaphthalen-1-yl)-8-fluoro-2-(((2R,7aS)-2-fluorohexahydro-1H-pyrrolizin-7a-yl)methoxy)pyrido[4,3-d]pyrimidin-4-yl)(methyl)amino)pyrrolidin-1-yl)-3-(morpholin-3-yl)prop-2-yn-1-one], the half-inhibitory concentration (IC50) lay in the range of 10 to 100 nM.
With `C=CC(=O)N1C[C@H](N(C)c2nc(OC[C@@]34CCCN3C[C@H](F)C4)nc3c(F)c(-c4cccc5cccc(Cl)c45)ncc23)C(F)(F)C1` [Example 239, 1-((S)-4-((7-(8-chloronaphthalen-1-yl)-8-fluoro-2-(((2R,7aS)-2-fluorotetrahydro-1H-pyrrolizin-7a(5H)-yl)methoxy)pyrido[4,3-d]pyrimidin-4-yl)(methyl)amino)-3,3-difluoropyrrolidin-1-yl)prop-2-en-1-one], the IC50 was in the range of 10 to 100 nM.
As for `Cc1ncc(F)c(/C=C/C(=O)N2CC[C@@H](N(C)c3nc(OC[C@@]45CCCN4C[C@H](F)C5)nc4c(F)c(-c5cccc6cccc(Cl)c56)ncc34)C2)n1` [Example 241, (E)-1-((R)-3-((7-(8-chloronaphthalen-1-yl)-8-fluoro-2-(((2R,7aS)-2-fluorotetrahydro-1H-pyrrolizin-7a(5H)-yl)methoxy)pyrido[4,3-d]pyrimidin-4-yl)(methyl)amino)pyrrolidin-1-yl)-3-(5-fluoro-2-methylpyrimidin-4-yl)prop-2-en-1-one], the figure is 100 to 500 nM.
